Measurements from ChEMBL document CHEMBL1201861, “Genomics of Drug Sensitity in Cancer screening data, Wellcome Trust Sanger Institute”.

How the values were obtained:
Test in all cases: cells
[1] = system: COLO-792; type: functional, cell-based, Homo sapiens; settings: Homo sapiens, COLO-792
Description: SANGER: Inhibition of human COLO-792 cell growth in a cell viability assay.

[2] = system: COLO-829; type: functional, cell-based, Homo sapiens; settings: Homo sapiens, COLO-829
Description: SANGER: Inhibition of human COLO-829 cell growth in a cell viability assay.

[3] = system: DOHH-2; type: functional, cell-based; settings: Homo sapiens;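 also: growth inhibition of human DOHH-2 cells, read out with a cell viability assay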
Description: SANGER: Inhibition of human DOHH-2 cell growth in a cell viability assay.

[4] = system: DSH1; type: functional, cell-based, Homo sapiens; settings: Homo sapiens, DSH1;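 also: growth inhibition of human DSH1 cells, measured with a cell viability readout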
Description: SANGER: Inhibition of human DSH1 cell growth in a cell viability assay.

[5] = system: ES7; type: functional, cell-based, Homo sapiens; settings: Homo sapiens, ES7;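 also: growth inhibition of cultured human ES7 cells, read out as cell viability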
Description: SANGER: Inhibition of human ES7 cell growth in a cell viability assay.

[6] = system: EOL1; type: functional, cell-based; settings: Homo sapiens;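 also: growth inhibition of EoL-1 cells, read out by a cell viability assay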
Description: SANGER: Inhibition of human EoL-1-cell cell growth in a cell viability assay.

[7] = system: GI-1; type: functional, cell-based, Homo sapiens; settings: Homo sapiens, GI-1;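 also: growth inhibition of human GI-1 cells, measured with a cell viability readout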
Description: SANGER: Inhibition of human GI-1 cell growth in a cell viability assay.

[8] = system: HCC38; type: functional, cell-based, Homo sapiens; settings: Homo sapiens, HCC38;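 also: cell viability assay on the human HCC38 cell line, with IC50 marking the concentration that inhibits cell growth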
Description: SANGER: Inhibition of human HCC38 cell growth in a cell viability assay.

[9] = system: HCT-116; type: functional, cell-based, Homo sapiens; settings: Homo sapiens, HCT-116
Description: SANGER: Inhibition of human HCT-116 cell growth in a cell viability assay.

[10] = system: HGC-27; type: functional, cell-based, Homo sapiens; settings: Homo sapiens, HGC-27;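 also: growth inhibition of human HGC-27 cells, read out in a cell viability assay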
Description: SANGER: Inhibition of human HGC-27 cell growth in a cell viability assay.

[11] = system: HN; type: functional, cell-based, Homo sapiens; settings: Homo sapiens, HN
Description: SANGER: Inhibition of human HN cell growth in a cell viability assay.

[12] = system: HO-1-N-1; type: functional, cell-based, Homo sapiens; settings: Homo sapiens, HO-1-N-1;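 also: growth inhibition of human HO-1-N-1 cells, read out with a cell viability assay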
Description: SANGER: Inhibition of human HO-1-N-1 cell growth in a cell viability assay.

[13] = system: HuTu80; type: functional, cell-based, Homo sapiens, HUTU-80; settings: Homo sapiens, HuTu80;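 also: growth inhibition of HuTu80 human cells, determined with a cell viability readout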
Description: SANGER: Inhibition of human HUTU-80 cell growth in a cell viability assay.

[14] = system: Huh-7; type: functional, cell-based, Homo sapiens; settings: Homo sapiens, Huh-7;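 also: HuH-7 cell growth inhibition, read out with a cell viability assay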
Description: SANGER: Inhibition of human HuH-7 cell growth in a cell viability assay.

[15] = system: K5; type: functional, cell-based, Homo sapiens; settings: Homo sapiens, K5
Description: SANGER: Inhibition of human K5 cell growth in a cell viability assay.

[16] = system: KINGS-1; type: functional, cell-based, Homo sapiens; settings: Homo sapiens, KINGS-1;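 also: cell viability assay measuring suppression of KINGS-1 cell growth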
Description: SANGER: Inhibition of human KINGS-1 cell growth in a cell viability assay.

[17] = system: KM-H2; type: functional, cell-based; settings: Homo sapiens;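 also: growth inhibition of KM-H2 cells, read out by a cell viability assay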
Description: SANGER: Inhibition of human KM-H2 cell growth in a cell viability assay.

[18] = system: KU-19-19; type: functional, cell-based, Homo sapiens; settings: Homo sapiens, KU-19-19
Description: SANGER: Inhibition of human KU-19-19 cell growth in a cell viability assay.

[19] = system: KYSE-410; type: functional, cell-based, Homo sapiens; settings: Homo sapiens, KYSE-410;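 also: growth inhibition of KYSE-410 cells, measured through a cell viability readout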
Description: SANGER: Inhibition of human KYSE-410 cell growth in a cell viability assay.

[20] = system: LB1047-RCC; type: functional, cell-based, Homo sapiens; settings: Homo sapiens, LB1047-RCC;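 also: inhibition of cell growth, determined with a cell viability assay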
Description: SANGER: Inhibition of human LB1047-RCC cell growth in a cell viability assay.

[21] = system: MFE-280; type: functional, cell-based, Homo sapiens; settings: Homo sapiens, MFE-280;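 also: growth inhibition of MFE-280 cells, determined with a cell viability readout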
Description: SANGER: Inhibition of human MFE-280 cell growth in a cell viability assay.

[22] = system: MFM-223; type: functional, cell-based, Homo sapiens; settings: Homo sapiens, MFM-223
Description: SANGER: Inhibition of human MFM-223 cell growth in a cell viability assay.

[23] = system: MHH-ES-1; type: functional, cell-based, Homo sapiens; settings: Homo sapiens, MHH-ES-1;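 also: cell growth inhibition measured by a cell viability assay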
Description: SANGER: Inhibition of human MHH-ES-1 cell growth in a cell viability assay.

[24] = system: MKN-45; type: functional, cell-based, Homo sapiens; settings: Homo sapiens, MKN-45;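 also: growth inhibition of human MKN-45 cells, measured with a cell viability assay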
Description: SANGER: Inhibition of human MKN45 cell growth in a cell viability assay.

[25] = system: MLMA; type: functional, cell-based, Homo sapiens; settings: Homo sapiens, MLMA;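 also: growth inhibition of MLMA cells (human), determined through a cell viability readout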
Description: SANGER: Inhibition of human MLMA cell growth in a cell viability assay.

[26] = system: NB10; type: functional, cell-based, Homo sapiens; settings: Homo sapiens, NB10;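 also: growth inhibition of NB10 cells, read out by a cell viability assay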
Description: SANGER: Inhibition of human NB10 cell growth in a cell viability assay.

[27] = system: NCI-H1650; type: functional, cell-based, Homo sapiens; settings: Homo sapiens, NCI-H1650;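 also: growth inhibition of human NCI-H1650 cells measured by a cell viability assay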
Description: SANGER: Inhibition of human NCI-H1650 cell growth in a cell viability assay.

[28] = system: NCI-H1792; type: functional, cell-based, Homo sapiens; settings: Homo sapiens, NCI-H1792;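 also: growth inhibition of human NCI-H1792 cells, read out as cell viability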
Description: SANGER: Inhibition of human NCI-H1792 cell growth in a cell viability assay.

[29] = system: NCI-H2347; type: functional, cell-based, Homo sapiens; settings: Homo sapiens, NCI-H2347;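 also: growth inhibition of the cell line, read out with a cell viability assay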
Description: SANGER: Inhibition of human NCI-H2347 cell growth in a cell viability assay.

[30] = system: NCI-H526; type: functional, cell-based; settings: Homo sapiens;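 also: growth inhibition of the human NCI-H526 cell line, measured by a cell viability assay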
Description: SANGER: Inhibition of human NCI-H526 cell growth in a cell viability assay.

[31] = system: NH-12; type: functional, cell-based, Homo sapiens; settings: Homo sapiens, NH-12;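 also: growth inhibition of NH-12 cells, read out with a cell viability assay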
Description: SANGER: Inhibition of human NH-12 cell growth in a cell viability assay.

[32] = system: OE19; type: functional, cell-based, Homo sapiens; settings: Homo sapiens, OE19;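 also: growth inhibition of OE19 cells, measured through a cell viability read-out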
Description: SANGER: Inhibition of human OE19 cell growth in a cell viability assay.

[33] = system: OMC-1; type: functional, cell-based, Homo sapiens; settings: Homo sapiens, OMC-1;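 also: growth inhibition of the OMC-1 cell line, measured by a cell viability assay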
Description: SANGER: Inhibition of human OMC-1 cell growth in a cell viability assay.

[34] = system: OVCAR-3; type: functional, cell-based, Homo sapiens; settings: Homo sapiens, OVCAR-3;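 also: growth inhibition of human OVCAR-3 cells, determined by a cell viability assay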
Description: SANGER: Inhibition of human OVCAR-3 cell growth in a cell viability assay.

[35] = system: RH-1; type: functional, cell-based, Homo sapiens; settings: Homo sapiens, RH-1;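 also: growth inhibition of human RH-1 cells, read out with a cell viability assay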
Description: SANGER: Inhibition of human RH-1 cell growth in a cell viability assay.

[36] = system: SK-MEL-30; type: functional, cell-based; settings: Homo sapiens;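 also: growth inhibition of SK-MEL-30 cells, determined with a cell viability assay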
Description: SANGER: Inhibition of human SK-MEL-30 cell growth in a cell viability assay.

[37] = system: SK-PN-DW; type: functional, cell-based; settings: Homo sapiens;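 also: growth inhibition measured with a viability assay on these cells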
Description: SANGER: Inhibition of human SK-PN-DW cell growth in a cell viability assay.

[38] = system: SW756; type: functional, cell-based, Homo sapiens; settings: Homo sapiens, SW756;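 also: growth inhibition of human SW756 cells, read out with a cell viability assay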
Description: SANGER: Inhibition of human SW756 cell growth in a cell viability assay.

[39] = system: SW 954; type: functional, cell-based, Homo sapiens; settings: Homo sapiens, SW 954;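 also: growth inhibition of SW954 human cancer cells, read out as cell viability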
Description: SANGER: Inhibition of human SW954 cell growth in a cell viability assay.

[40] = system: T-24; type: functional, cell-based, Homo sapiens; settings: Homo sapiens, T-24;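 also: growth inhibition of T-24 cells, read out with a cell viability assay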
Description: SANGER: Inhibition of human T-24 cell growth in a cell viability assay.

[41] = system: CWR22R; type: functional, cell-based, Homo sapiens; settings: Homo sapiens, 22Rv1;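 also: growth inhibition of 22Rv1 cells, read out with a cell viability assay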
Description: SANGER: Inhibition of human 22RV1 cell growth in a cell viability assay.

[42] = system: A204; type: functional, cell-based, Homo sapiens; settings: Homo sapiens, A204;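 also: growth inhibition of human A204 cells, read out with a cell viability assay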
Description: SANGER: Inhibition of human A204 cell growth in a cell viability assay.

[43] = system: ABC-1; type: functional, cell-based, Homo sapiens; settings: Homo sapiens, ABC-1;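 also: growth inhibition of human ABC-1 cells, read out by a cell viability assay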
Description: SANGER: Inhibition of human ABC-1 cell growth in a cell viability assay.

[44] = system: ACN; type: functional, cell-based, Homo sapiens; settings: Homo sapiens, ACN;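 also: growth inhibition of the human ACN cell line, read out via cell viability testing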
Description: SANGER: Inhibition of human ACN cell growth in a cell viability assay.

[45] = system: BB49-HNC; type: functional, cell-based, Homo sapiens; settings: Homo sapiens, BB49-HNC;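 also: cell viability assay read-out, reported as inhibition of BB49-HNC cell growth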
Description: SANGER: Inhibition of human BB49-HNC cell growth in a cell viability assay.

[46] = system: BV-173; type: functional, cell-based; settings: Homo sapiens
Description: SANGER: Inhibition of human BV-173 cell growth in a cell viability assay.

[47] = system: TYK-nu; type: functional, cell-based, Homo sapiens; settings: Homo sapiens, TYK-nu;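 also: growth inhibition of human TYK-nu cells, read out by a cell viability assay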
Description: SANGER: Inhibition of human TYK-nu cell growth in a cell viability assay.

[48] = system: U-87 MG; type: functional, cell-based, U-87MG ATCC; settings: Homo sapiens;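 also: growth inhibition of the cells measured with a viability assay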
Description: SANGER: Inhibition of human U-87-MG cell growth in a cell viability assay.

[49] = system: YAPC; type: functional, cell-based, Homo sapiens; settings: Homo sapiens, YAPC;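 also: growth inhibition of YAPC cells, measured with a cell viability assay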
Description: SANGER: Inhibition of human YAPC cell growth in a cell viability assay.

[50] = system: CGTH-W-1; type: functional, cell-based, Homo sapiens; settings: Homo sapiens, CGTH-W-1;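 also: growth inhibition of human CGTH-W-1 cells measured by cell viability assay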
Description: SANGER: Inhibition of human CGTH-W-1 cell growth in a cell viability assay.

[51] = system: COLO-678; type: functional, cell-based, Homo sapiens; settings: Homo sapiens, COLO-678
Description: SANGER: Inhibition of human COLO-678 cell growth in a cell viability assay.

For `COc1cc([C@@H]2c3cc4c(cc3[C@@H](O[C@@H]3O[C@@H]5CO[C@@H](C)O[C@H]5[C@H](O)[C@H]3O)[C@H]3COC(=O)[C@H]23)OCO4)cc(OC)c1O` [ETOPOSIDE], the IC50 [1] was greater than 16000 nM, the IC50 [2] was 1770 nM and the IC50 [3] was 347 nM. It also gave an IC50 [4] of 2360 nM, an IC50 [5] of 767 nM and an IC50 [6] of 302 nM. The IC50 [7] was 713 nM, the IC50 [8] was 2270 nM and the IC50 [9] was 1010 nM. The IC50 [10] was 102 nM, the IC50 [11] was greater than 16000 nM and the IC50 [12] was 2380 nM. For the same molecule, the IC50 [13] was 217 nM, the IC50 [14] was 2560 nM and the IC50 [15] was greater than 16000 nM. For the same molecule, the IC50 [16] was greater than 16000 nM, the IC50 [17] was 1670 nM and the IC50 [18] was greater than 16000 nM. The IC50 [19] was 12800 nM, the IC50 [20] was 2140 nM and the IC50 [21] was greater than 16000 nM. It also gave an IC50 [22] greater than 16000 nM, an IC50 [23] of 463 nM and an IC50 [24] of 1870 nM. It also gave an IC50 [25] of 3380 nM, an IC50 [26] of 16000 nM and an IC50 [27] of 1740 nM. For the same molecule, the IC50 [28] was greater than 16000 nM, the IC50 [29] was 9660 nM and the IC50 [30] was 456 nM. For the same molecule, the IC50 [31] was 672 nM, the IC50 [32] was greater than 16000 nM and the IC50 [33] was greater than 16000 nM. The IC50 [34] was greater than 16000 nM, the IC50 [35] was 17.8 nM and the IC50 [36] was 8240 nM. For the same molecule, the IC50 [37] was 342 nM, the IC50 [38] was 2980 nM and the IC50 [39] was 1960 nM. For the same molecule, the IC50 [40] was greater than 16000 nM, the IC50 [41] was 1530 nM and the IC50 [42] was 232 nM. The IC50 [43] was 405 nM, the IC50 [44] was 79 nM and the IC50 [45] was greater than 16000 nM. For the same molecule, the IC50 [46] was 5050 nM, the IC50 [47] was 2410 nM and the IC50 [48] was greater than 16000 nM. It also gave an IC50 [49] greater than 16000 nM, an IC50 [50] of 57.4 nM and an IC50 [51] greater than 16000 nM.
With `Cc1cnc(-c2cnc(NCCNc3ccc(C#N)cn3)nc2-c2ccc(Cl)cc2Cl)[nH]1` [LADUVIGLUSIB] the IC50 [1] was greater than 2560 nM, the IC50 [2] was greater than 2560 nM and the IC50 [3] was greater than 2560 nM. For the same molecule, the IC50 [4] was greater than 2560 nM, the IC50 [5] was greater than 2560 nM and the IC50 [6] was greater than 2560 nM. It also gave an IC50 [7] greater than 2560 nM, an IC50 [8] greater than 2560 nM and an IC50 [9] greater than 2560 nM. It also gave an IC50 [10] greater than 2560 nM, an IC50 [11] greater than 2560 nM and an IC50 [12] greater than 2560 nM. For the same molecule, the IC50 [13] was greater than 2560 nM, the IC50 [14] was greater than 2560 nM and the IC50 [15] was greater than 2560 nM. The IC50 [16] was greater than 2560 nM, the IC50 [17] was greater than 2560 nM and the IC50 [18] was greater than 2560 nM. It also gave an IC50 [19] greater than 2560 nM, an IC50 [20] greater than 2560 nM and an IC50 [21] greater than 2560 nM. For the same molecule, the IC50 [22] was greater than 2560 nM, the IC50 [23] was greater than 2560 nM and the IC50 [24] was greater than 2560 nM. The IC50 [25] was greater than 2560 nM, the IC50 [26] was greater than 2560 nM and the IC50 [27] was greater than 2560 nM. The IC50 [28] was greater than 2560 nM, the IC50 [29] was greater than 2560 nM and the IC50 [30] was greater than 2560 nM. The IC50 [31] was greater than 2560 nM, the IC50 [32] was greater than 2560 nM and the IC50 [33] was greater than 2560 nM. The IC50 [34] was greater than 2560 nM, the IC50 [35] was greater than 2560 nM and the IC50 [36] was greater than 2560 nM. The IC50 [37] was greater than 2560 nM, the IC50 [38] was greater than 2560 nM and the IC50 [39] was greater than 2560 nM. It also gave an IC50 [40] greater than 2560 nM, an IC50 [41] greater than 2560 nM and an IC50 [42] greater than 2560 nM. It also gave an IC50 [43] greater than 2560 nM, an IC50 [44] greater than 2560 nM and an IC50 [45] greater than 2560 nM. It also gave an IC50 [46] greater than 2560 nM, an IC50 [47] of 1080 nM and an IC50 [48] greater than 2560 nM. It also gave an IC50 [49] greater than 2560 nM, an IC50 [50] greater than 2560 nM and an IC50 [51] greater than 2560 nM.
With `C[C@]1(O)C[C@@H](c2nc(-c3ccc4ccc(-c5ccccc5)nc4c3)c3c(N)nccn32)C1` [LINSITINIB] the IC50 [1] was greater than 2560 nM, the IC50 [2] was greater than 2560 nM and the IC50 [3] was greater than 2560 nM. It also gave an IC50 [4] greater than 2560 nM, an IC50 [5] greater than 2560 nM and an IC50 [6] greater than 2560 nM. The IC50 [7] was greater than 2560 nM, the IC50 [8] was greater than 2560 nM and the IC50 [9] was greater than 2560 nM. The IC50 [10] was greater than 2560 nM, the IC50 [11] was greater than 2560 nM and the IC50 [12] was greater than 2560 nM. The IC50 [13] was greater than 2560 nM, the IC50 [14] was 1600 nM and the IC50 [15] was greater than 2560 nM. The IC50 [16] was greater than 2560 nM, the IC50 [17] was greater than 2560 nM and the IC50 [18] was greater than 2560 nM. The IC50 [19] was greater than 2560 nM, the IC50 [20] was greater than 2560 nM and the IC50 [21] was greater than 2560 nM. The IC50 [22] was greater than 2560 nM, the IC50 [23] was greater than 2560 nM and the IC50 [24] was greater than 2560 nM. It also gave an IC50 [25] greater than 2560 nM, an IC50 [26] of 454 nM and an IC50 [27] greater than 2560 nM. It also gave an IC50 [28] greater than 2560 nM, an IC50 [29] greater than 2560 nM and an IC50 [30] greater than 2560 nM. It also gave an IC50 [31] of 760 nM, an IC50 [32] greater than 2560 nM and an IC50 [33] greater than 2560 nM. It also gave an IC50 [34] greater than 2560 nM, an IC50 [35] of 749 nM and an IC50 [36] greater than 2560 nM. It also gave an IC50 [37] of 1910 nM, an IC50 [38] greater than 2560 nM and an IC50 [39] greater than 2560 nM. For the same molecule, the IC50 [40] was greater than 2560 nM, the IC50 [41] was greater than 2560 nM and the IC50 [42] was greater than 2560 nM. For the same molecule, the IC50 [43] was 904 nM, the IC50 [44] was greater than 2560 nM and the IC50 [45] was greater than 2560 nM. The IC50 [46] was greater than 2560 nM, the IC50 [47] was greater than 2560 nM and the IC50 [48] was greater than 2560 nM. For the same molecule, the IC50 [49] was greater than 2560 nM, the IC50 [50] was greater than 2560 nM and the IC50 [51] was greater than 2560 nM.
